Laboratory results: US8921595B2, “Protein Arginine Deiminase inhibitors as novel therapeutics for rheumatoid arthritis and cancer” (University of South Carolina, priority 2009, dated 2014)

Assays:
[1] = tested on: HL-60 cells; assay: Cytotoxicity / cell viability (CellTiter 96); format: cell-based, human; conditions: 24 h
Source text: To further evaluate the […] effects of these compounds, their ability to inhibit the growth of HL60 cells, a leukemic cell line, was characterized. […] Such finding prompted further investigation into this phenomenon and led to the discovery that for the HL-60 cell line, the cells that remained viable were actually being differentiated into non-cancerous granulocytes. Evidence of this differentiation includes the increased expression of PAD4 (FIG. 6).
HL-60 human promyelocytic leukemia cells were obtained from the ATCC (Manassas, Va.). The cells were cultured in RPMI 1640 media supplemented with 10% FBS and 1% Pencillin-Streptomycin, in a 5% CO2 incubator at 37° C. MCF-7 cells were cultured in DMEM media supplemented with 10% FBS and 1% Penicillin-Streptomycin, in a 5% CO2 incubator at 37° C.
HL-60 and MCF-7 cells were grown to confluence (1×10^6 cells/mL) in the appropriate media. […] Cell viability was determined using the CellTiter 96 Non-radioactive Cell Proliferation Assay (Promega). Cell viability was quantified as the percentage of control absorbance. […] When possible, EC50 values were determined by fitting the dose response data to equation 2 using GraFit (version 5.0.11)^33, Fractional Activity=1/(1+([1]/EC50) (eq 2) where [I] is the concentration of inhibitor (e.g., doxorubicin) and EC50 is the concentration of inhibitor that yields half-maximal cell survival. Western Blotting.

[2] = tested on: HL-60 cells; assay: Combination with doxorubicin, HL-60 cell viability; format: cell-based, human; conditions: for effects of doxorubicin in combination: HL-60 cells, combination with doxorubicin; for viability of cancer cells in combination with doxorubicin: in conjunction with doxorubicin
Experimental: Although o-F- and o-Cl-amidine show some efficacy for killing cancer derived cells, the overall effects are modest. In light of such results, these inhibitors were tested in a combination with doxorubicin, a known chemotherapeutic that is used for the treatment of numerous cancers, often as part of a combination therapy. In accordance with the present disclosure, the additive effects of doxorubicin was tested with varying concentrations of both o-F- and o-Cl-amidine on HL-60 cell viability.
HL-60 and MCF-7 cells were grown to confluence (1×10^6 cells/mL) in the appropriate media. 50 μL of the MCF-7 cells were plated into each well of a 96 well plate with 40 μL of DMEM. Cells were allowed to adhere to the plate for 15 h at 37° C. and 5% CO2. For the HL-60 cells, 90 μL of the cells were added to each well of a 96 well plate. o-F-amidine, o-Cl-amidine, doxorubicin, or ATRA (10 μL, 100 nM to 100 μM) were added to the plates and allowed to incubate with the cells for 24 h. Cell viability was determined using the CellTiter 96 Non-radioactive Cell Proliferation Assay (Promega). Cell viability was quantified as the percentage of control absorbance. Each condition was performed in triplicate. The use of 1% triton served as a 100% killing control. When possible, EC50 values were determined by fitting the dose response data to equation 2 using GraFit (version 5.0.11)^33, Fractional Activity=1/(1+([1]/EC50) (eq 2) where [I] is the concentration of inhibitor (e.g., doxorubicin) and EC50 is the concentration of inhibitor that yields half-maximal cell survival. Western Blotting.

## N=C(CCl)NCCC[C@H](NC(=O)c1ccccc1C(=O)O)C(N)=O [o-Cl-amidine, N-α-(2-carboxyl)benzoyl-N^5-(2-chloro-1-iminoethyl)-L-ornithine amide]
[1]
  cell viability in HL-60 cells: reduce cell viability
[2]
  effects of doxorubicin in combination: potentiated
  viability of cancer cells in combination with doxorubicin: reduced to levels that are undetectable above the background signal

## N=C(CF)NCCC[C@H](NC(=O)c1ccccc1C(=O)O)C(N)=O [o-F-amidine, N-α-(2-carboxyl)benzoyl-N^5-(2-fluoro-1-iminoethyl)-L-ornithine amide]
[1]
  cell viability in HL-60 cells: reduce cell viability
[2]
  effects of doxorubicin in combination: potentiated
  viability of cancer cells in combination with doxorubicin: reduced to levels that are undetectable above the background signal
